Reference: article PMC6537702, “Design, synthesis, molecular modelling, and biological evaluation of novel substituted pyrimidine derivatives as potential anticancer agents for hepatocellular carcinoma” (Journal of Enzyme Inhibition and Medicinal Chemistry, 2019)
Values after ≈ are worked out from the molar mass of the structure shown. Like-named read-outs stand apart in the source and are kept apart here.

Assays:
[1] = tested on: caspase 3/7 activity in HepG2 cells; assay: Caspase-Glo 3/7 assay, HepG2; format: cell-based, human; conditions: 24 h incubation; 2 IC50, IC50, ½ IC50; vs DMSO solvent control; p < .05, n = 3
Description: The influence of our test samples on caspase 3/7 activity in liver cancer cells (HepG2 cells) was detected using Caspase-Glo 3/7 Assay kit (Promega, Madison, WI) as previously described[45] (see Supplementary).
(§1) Cell culture and treatment
(§2) All reagents were handled in a sterile fume hood. DMEM medium, and fetal bovine serum (FBS) were purchased from Gibco;phosphate-buffered saline pH 7.4 (PBS) and trypsin-EDTA were obtained from Sigmae Aldrich. Alamar Blue or Resazurin (Promega,Mannheim, Germany) reduction assay was used to assess the cytotoxicity of the studied samples. The growth medium (DMEMmedium with 10% FBS, 10 0 U/mL penicillin, and 10 0 mg/L streptomycin), and alamar blue were stored at 48 C, while trypsineEDTA and FBS were stored frozen at 208C and thawed before use; PBS was stored at room temperature. The Hep-G2, Huh-7 and normal fibroblast cells were obtained from the German Cancer Research Center (DKFZ).Cells were cultured in 50 cm2 culture flask s (Corning) using DMEM medium supplemented with 10% FBS, penicillin (10 0 IU/mL), and streptomycin ([…]). The culture was maintained at 37 C atmosphere of 5% CO2 and 95% relative humidity. The cells were transferred to a new fl ask every 2 days and treated with trypsineEDTA to detach them from the flask . Cells were counted under a microscope using a hemacytometer (Hausser Scientific).Cell solutions were diluted with growth medium to a concentration of 1 *10^5 cells/mL and transferred to a 96-well plate, and treated with gradient concentrations of test compounds.
(§3) Resazurin cell growth inhibition assay
Alamar Blue or Resazurin (Promega, Mannheim, Germany) reduction assay was used to assess the cytotoxicity of the studied samples. The assay tests cellular viability and mitochondrial function. Briefly y, adherent cells were grown in tissue culture flask s, and then harvested by treating the fl asks with 0.025% trypsin and0.25 mM EDTA for 5 min. Once detached, cells were washed, counted and an aliquot (5 * 103cells) was placed in each well of a96-well cell culture plate in a total volume of […]. Cells were allowed to attach overnight and then treated with samples. The final concentration of samples ranged from 0 to 10 0 mM. […] Fluorescence was measured on an automated 96-well Infinite M2000 ProTM plate reader (Tecan, Crailsheim, Germany) using an excit ation wave-length of 54 4 nm and an emission wavelength of 590 nm. […]
The influence of our test samples on cas pase 3/7 activity in […] was detected using Caspase -Glo 3/7 Assay kit (Promega). […] Luminescence was measured using well Infinite M2000 Pro TM instrument (Tecan).Caspase 3/7 activity was expressed as percentage of the unt reated

HepG2 cell line = assay: Resazurin cell growth inhibition assay, HepG2; format: cell-based, human; conditions: Homo sapiens
Description: (§4) All compounds 2a-e, 3a-d, and PPAD’s 4a-t were subjected to a screening system for evaluation of their anticancer activity against cell line of human cancer, namely liver (HepG2 and Huh-7) cancer and normal fibroblast cells obtained from the German Cancer Research Center (DKFZ), following the Resazurin Cell Growth Inhibition Assay[45] in comparison to the standard treatment using DOX (see Supplementary).
as §1, §2, §3
(§5) Alamar Blue or Resazurin (Promega, Mannheim, Germany) reduction assay was used to assess the cytotoxicity of the studied samples. The assay tests cellular viability and mitochondrial function. Briefly y, adherent cells were grown in tissue culture flask s, and then harvested by treating the fl asks with 0.025% trypsin and0.25 mM EDTA for 5 min. Once detached, cells were washed, counted and an aliquot (5 * 103cells) was placed in each well of a96-well cell culture plate in a total volume of […]. Cells were allowed to attach overnight and then treated with samples. The final concentration of samples ranged from 0 to 10 0 mM. After 4 8 h,[…] Resazurin 0.01% w/v solution was added to each well and the plates were incubated at 37C for 1 -2 h. Fluorescence was measured on an automated 96-well Infinite M2000 ProTM plate reader (Tecan, Crailsheim, Germany) using an excit ation wave-length of 54 4 nm and an emission wavelength of 590 nm. Doxorubicin was used as positive control. Each assay was done at least three times, with two replicates each. The viability was compared based on a comparison with untreated cells. IC50(on cancer cells) were the concentration of sample required to inhibit 50% of the cell proliferation and were calculated from a calibration curve by a linear regression using Microsoft Excel

[2] = Resazurin cell growth inhibition assay, normal fibroblast cells; format: cell-based; conditions: M ± SEM of three independent experiments, read-out: Cytotoxic activity IC50, Fibroblast
Description: as §4, §1, §2, §3, §5

[3] = tested on: caspase 3/7 activity in Huh-7 cells; assay: Caspase-Glo 3/7 assay, Huh-7; format: cell-based, human; conditions: 24 h incubation; 2 IC50, IC50, ½ IC50; vs DMSO solvent control; p < .05, n = 3
Huh-7 cell line = assay: Resazurin cell growth inhibition assay, Huh-7; format: cell-based, human; conditions: Homo sapiens
Description: as §4, §1, §2, §3, §5

[4] = HepG2, 48 h, resazurin assay, 48 h, M ± SEM of three independent experiments, read-out: Cytotoxic activity IC50, HepG2 cell line
[5] = HepG2, converted from μg/mL, read-out: IC50 against HepG2 cell line, equivalent in μM
[6] = Huh-7, 48 h, resazurin assay, 48 h, M ± SEM of three independent experiments, read-out: Cytotoxic activity IC50, Huh-7 cell line
[7] = Huh-7, converted from μg/mL, read-out: IC50 against Huh-7 cell line, equivalent in μM

SMILES | IC50 (HepG2 cell line; [5]) | IC50 (Huh-7 cell line; [7]) | melting point | activation of caspase 3/7, HepG2 cell line [1] | IC50 (HepG2 cell line; [4]) | IC50 at 48 h [2] | activation of caspase 3/7, Huh-7 cell line [3] | IC50 (Huh-7 cell line; [6])
N#Cc1c(-c2ccc(F)cc2)nc(N2N=C(c3c4ccccc4cc4ccccc34)CC2c2ccc(F)cc2)[nH]c1=O (stereo not shown) [Compound 4e, 2-[3-Anthracene-9-yl-5–(4-fluoro-phenyl)-4,5-dihydro-pyrazol-1-yl]-4–(4-fluoro-phenyl)-6-oxo-1,6-dihydro-pyrimidine-5-carbonitrile] | 9.6 µM | 11.1 µM | – | significant increase | 5.34 ± 0.21 µg/mL | 24.1 ± 4.63 µg/mL (≈ 43.6 µM) | significant increase | 6.13 ± 1.01 µg/mL
COc1cc(-c2nc(N3N=C(c4c5ccccc5cc5ccccc45)CC3c3ccc(F)cc3)[nH]c(=O)c2C#N)cc(OC)c1OC (stereo not shown) [Compound 4m, 2-[3-Anthracene-9-yl-5–(4-fluoro-phenyl)-4,5-dihydro-pyrazol-1-yl]-6-oxo-4–(3,4,5-trimethoxy-phenyl)-1,6-dihydro-pyrimidine-5-carbonitrile] | – | – | 148 to 150 °C | significant increase | 8.12 ± 1.82 µg/mL | 24.1 ± 4.34 µg/mL (≈ 38.6 µM) | significant increase | 7.5 ± 0.98 µg/mL
COc1cc(-c2nc(N3N=C(c4c5ccccc5cc5ccccc45)CC3c3cc(OC)c(OC)c(OC)c3)[nH]c(=O)c2C#N)cc(OC)c1OC (stereo not shown) [Compound 4o, 2-[3-Anthracene-9-yl-5–(3,4,5-trimethoxy-phenyl)-4,5-dihydro-pyrazol-1-yl]-6-oxo-4–(3,4,5-trimethoxy-phenyl)-1,6-dihydro-pyrimidine-5-carbonitrile] | – | – | 165 to 166 °C | – | 10.2 ± 1.02 µg/mL | 28.1 ± 3.31 µg/mL (≈ 40.2 µM) | – | 14.5 ± 1.24 µg/mL
COc1cc(C2CC(c3c4ccccc4cc4ccccc34)=NN2c2nc(-c3ccc(N(C)C)cc3)c(C#N)c(=O)[nH]2)cc(OC)c1OC (stereo not shown) [Compound 4s, 2-[3-Anthracene-9-yl-5–(3,4,5-trimethoxy-phenyl)-4,5-dihydro-pyrazol-1-yl]-4–(4-dimethylamino-phenyl)-6-oxo-1,6-dihydro-pyrimidine-5-carbonitrile] | – | – | 160 to 162 °C | – | 8.66 ± 1.44 µg/mL | 20.3 ± 4.15 µg/mL (≈ 31.2 µM) | – | 11.3 ± 0.61 µg/mL

Further lines, with some results ahead:

IC50 (HepG2 cell line; [5]) | IC50 (Huh-7 cell line; [7]) | melting point | SMILES | activation of caspase 3/7, HepG2 cell line [1] | IC50 (HepG2 cell line; [4]) | IC50 at 48 h [2] | activation of caspase 3/7, Huh-7 cell line [3] | IC50 (Huh-7 cell line; [6])
– | 11.2 µM | 184 to 185 °C | N#Cc1c(-c2c[nH]c3ccccc23)nc(N2N=C(c3c4ccccc4cc4ccccc34)CC2c2ccc(F)cc2)[nH]c1=O (stereo not shown) [Compound 4i, 2-[3-Anthracene-9-yl-5–(4-fluoro-phenyl)-4,5-dihydro-pyrazol-1-yl]-4-(1H-indol-3-yl)-6-oxo-1,6-dihydro-pyrimidine-5-carbonitrile] | significant increase | 9.54 ± 1.24 µg/mL | 31.4 ± 2.07 µg/mL (≈ 54.7 µM) | significant increase | 6.47 ± 0.41 µg/mL
11.8 µM | – | 182 to 184 °C | CN(C)c1ccc(-c2nc(N3N=C(c4c5ccccc5cc5ccccc45)CC3c3ccc(F)cc3)[nH]c(=O)c2C#N)cc1 (stereo not shown) [Compound 4q, 2-[3-Anthracene-9-yl-5–(4-fluoro-phenyl)-4,5-dihydro-pyrazol-1-yl]-4–(4-dimethylamino-phenyl)-6-oxo-1,6-dihydro-pyrimidine-5-carbonitrile] | significant increase | 6.85 ± 0.85 µg/mL | 34.3 ± 6.42 µg/mL (≈ 59.3 µM) | significant increase | 8.66 ± 1.52 µg/mL
– | – | 174 to 175 °C | CN(C)c1ccc(-c2nc(N3N=C(c4c5ccccc5cc5ccccc45)CC3c3ccc(N(C)C)cc3)[nH]c(=O)c2C#N)cc1 (stereo not shown) [Compound 4r, 2-[3-Anthracene-9-yl-5–(4-dimethylamino-phenyl)-4,5-dihydro-pyrazol-1-yl]-4–(4-dimethylamino-phenyl)-6-oxo-1,6-dihydro-pyrimidine-5-carbonitrile] | – | 8.44 ± 1.1 µg/mL | 25.2 ± 5.24 µg/mL (≈ 41.8 µM) | – | 7.61 ± 0.21 µg/mL
– | – | 190 to 191 °C | CN(C)c1ccc(-c2nc(N3N=C(c4c5ccccc5cc5ccccc45)CC3c3c[nH]c4ccccc34)[nH]c(=O)c2C#N)cc1 (stereo not shown) [Compound 4t, 2-[3-Anthracene-9-yl-5-(1H-indol-3-yl)-4,5-dihydro-pyrazol-1-yl]-4–(4-dimethylamino-phenyl)-6-oxo-1,6-dihydro-pyrimidine-5-carbonitrile] | – | 9.21 ± 1.05 µg/mL | 23.5 ± 3.82 µg/mL (≈ 39.2 µM) | – | 7.42 ± 1.48 µg/mL
